Entries after “also recorded” stand apart in the source; their conditions may differ.
Columns and labels:
K. oxytoca [1] = assay: Biofilm prevention in vitro assay (crystal violet, static); format: cell-based, Klebsiella oxytoca; conditions: 18 h; for effect on K. oxytoca biofilm formation (in words) / reduction of K. oxytoca biofilm formation over concentration range: synthetic peptide 0.4-112.5 µg/mL; for reduction of K. oxytoca biofilm formation over concentration range: maximum or overall reduction; for reduction of K. oxytoca biofilm formation at 112.5 µg/mL: synthetic peptide at highest concentration 112.5 µg/mL
Procedure: (§1) The opportunistic pathogenic bacteria K. oxytoca (DSM 7342, M5a1-type strain), P. aeruginosa PAO1 (DSM 1707, pathogenic-type strain), S. epidermidis RP62A (DSM 28319, clinical isolate from catheter sepsis), and S. aureus (DSM 11823, clinical isolate) were grown in 5 mL LB medium overnight at below-indicated temperatures. The cell concentrations of the overnight cultures were analyzed with Neubauer cell counting and set to 3 × 10^8 cells/mL using GC minimal medium (with 1% (v/v) glycerol and 0.3% (w/v) casamino acids) for K. oxytoca and Caso bouillon (17 g/L casein peptone, 3 g/L soybean peptone, 5 g/L NaCl, 2.5 g/L K2HPO4, and 2.5 g/L glucose) for the remaining strains in the crystal violet assay. Cultures were aliquoted in 96-well plates (180/195 µL for each cavity). Cell-free size-fractionated cell extracts (20 µL) and synthesized peptides (various concentrations, 5 µL) were added to the cultures. MTPs were closed with gas-permeable membranes (Breathe-Easy®, Diversified Biotech, Dedham, MA, USA) and incubated at 37 °C (P. aeruginosa, S. aureus, and S. epidermidis) or 30 °C (K. oxytoca) for 18 h without shaking. Three biological replicates were performed, each with eight technical replicates. Medium controls were performed for normalization. Biofilm formation was monitored and quantified using the crystal violet assay. Following an 18 h incubation period, the cell cultures were removed, and the wells underwent two washes with H2O. Biofilms that developed and adhered to the surfaces were subjected to staining using 200 μL of a 0.1% crystal violet solution (Carl Roth, Karlsruhe, Germany) for 10 min at room temperature (RT). The stained biofilms were left to air dry after eliminating the crystal violet solution through two H2O washes. A total of 200 μL of 96% ethanol was introduced into each stained well to solubilize the dye, and incubation at RT for 15 min followed. Biofilm formation was assessed by measuring the absorbance of resolved crystal violet at 590 nm with the plate reader Spectra max Plus 384 (Molecular Devices, Ismaning; Germany). The screening procedure is depicted in Figure S1.

P. aeruginosa PAO1 = assay: as above; format: cell-based, Pseudomonas aeruginosa; conditions: synthetic peptide 0.4-112.5 µg/mL, 18 h
Procedure: as §1

S. aureus [2] = assay: as above; format: cell-based, Staphylococcus aureus; conditions: synthetic peptide 0.4-112.5 µg/mL, 18 h
Procedure: as §1

S. epidermidis RP62A = assay: as above; format: cell-based, Staphylococcus epidermidis; conditions: 18 h; for effect on S. epidermidis biofilm formation (in words) / reduction of S. epidermidis biofilm formation over concentration range: synthetic peptide 0.4-112.5 µg/mL; for reduction of S. epidermidis biofilm formation over concentration range: maximum or range of reduction
Procedure: as §1

K. oxytoca [3] = assay: Growth of planktonic-growing pathogens (turbidity at 600 nm); format: cell-based, Klebsiella oxytoca; conditions: 112.5 µg/mL peptide, LB, 18 h, 80 rpm, 30 °C; mean of 2 biological x 8 technical replicates; control 1.21326667
Procedure: (§2) In addition, the potential growth-inhibiting effects of synthetic peptides were tested on planktonic-growing pathogens. Again, 3 × 10^8 cells/mL diluted in LB medium were aliquoted in 96-well plates (200 µL for each cavity). Synthetic peptides were added to two selected final concentrations of 3.5 µg/mL and 112.5 µg/mL at the beginning of the experiment. MTPs were closed with gas-permeable membranes and gently shaken at 80 rpm and 37 °C (P. aeruginosa, S. aureus, and S. epidermidis) or 30 °C (K. oxytoca) for 18 h. A comparative endpoint determination (growth control, peptide control IDR-1018, and identified peptides) of the turbidity at 600 nm was measured with plate reader Spectra max Plus 384. An unpaired t-test was conducted as a statistical hypothesis test to determine the significance (p-value) of growth differences.

P. aeruginosa = assay: as above; format: cell-based, Pseudomonas aeruginosa; conditions: 18 h; for turbidity (600 nm), P. aeruginosa: 112.5 µg/mL peptide, LB, 80 rpm, 37 °C, mean of 2 biological x 8 technical replicates, control 1.2788369; for reduction of planktonic growth of P. aeruginosa: 112.5 µg/mL, versus control without peptide
Procedure: as §2

S. aureus [4] = assay: as above; format: cell-based, Staphylococcus aureus; conditions: 18 h; for turbidity (600 nm), S. aureus: 112.5 µg/mL peptide, LB, 80 rpm, 37 °C, mean of 2 biological x 8 technical replicates, control 1.37192917; for reduction of planktonic growth of S. aureus: 112.5 µg/mL, versus control without peptide
Procedure: as §2

S. epidermidis = assay: as above; format: cell-based, Staphylococcus epidermidis; conditions: 112.5 µg/mL peptide, LB, 18 h, 80 rpm, 37 °C; mean of 2 biological x 8 technical replicates; control 1.3398
Procedure: as §2

K. oxytoca M5aI = assay: Dynamic biofilm formation in microfluidic flow cell (Syto9, CLSM); format: cell-based, Klebsiella oxytoca; conditions: peptide 10 ng/channel, GC medium, flow 15 µL/h, 24 h, 30 °C, mean ± SD of four biological x four technical replicates; for biofilm thickness: medium control 11 ± 6 µm; for biofilm volume: medium control 112 ± 62 µm^3
From the text: The microfluidic flow cell system comprises a polymethyl methacrylate corpus with a single channel (1 × 8 × 0.1 mm). Two inlets and one outlet exist. A borosilicate glass (24 × 60 × 0.17 mm; Carl Roth, Karlsruhe, Germany) was fixed with the adhesive Black-Seal silicone (Weicon, Münster, Germany). Microliter syringes (Innovative Labor System GmbH, Stützenbach, Germany) were connected via polytetrafluoroethylene (PTFE) tubes (0.3 mm × 0.6 mm) (Bola, Grünsfeld, Germany) with the in- and outlets and clamped into a syringe pump (Model: 220) (KD Scientific, Holliston, MA, USA). The channel was sterilized by rinsing 70% EtOH for 24 h at a flow rate of 20 µL/h. Afterwards, the remaining ethanol was washed out with sterile water at 20 μL/h for 1 h. Subsequently, the channel was equilibrated with GC medium at 20 μL/h for 2 h. Inoculation was conducted with a cell suspension of 1 × 10^9 cells/mL, generated from an overnight culture of K. oxytoca M5aI. Initial cell adhesion was ensured by incubation at 30 °C for 1 h without any flow. Next, the channel was continuously rinsed at 15 μL/h with GC medium injected within the first inlet. The synthetic peptides IDR-1018 (biofilm-preventing control peptide, [47, 48], BiP_Aa_2, BiP_Aa_5, and BiP_Aa_6 were diluted in GC medium to a concentration of 25 µg/mL and injected within the second inlet. Thus, the final peptide concentration was 12.5 µg/mL, corresponding to 10 ng peptide within the 0.8 µL channel. Biofilm formation was conducted at a flow rate of 15 µL/h for 24 h at 30 °C. The biofilm formation of K. oxytoca M5aI was further studied without adding peptides. Four biological replicates were conducted for each treatment.
Biofilms were stained with the fluorescent dye Syto9 (488 nm) (Life Technologie, Carlsbad, CA, USA) and analyzed using the LSM 700 confocal laser scanning microscope (Zeiss, Oberkochen, Germany). Therefore, the microfluidic flow cells were washed with GC medium at 3 µL/min for 15 min. The channel was then filled with a 1:1000 dilution of the fluorescent dye Syto9 and incubated in the dark at RT for 30 min. Dye residues were removed by rinsing GC medium at 3 μL/min for 15 min. Four image stacks were recorded per flow cell with optical sections of 0.9 µm per z-step. The digital image acquisition, three-dimensional reconstruction, and calculation of the biofilm parameters were performed with the software “Zen Black” (version 14.0.22.201) (Zeiss, Oberkochen, Germany) and the microscopy image analysis software “Imaris” (version 9.9.0) (Oxford Instruments, Abingdon, UK).

[5] = Dimerization of peptide with increasing concentration (preliminary results); format: physicochemical
[6] = test system: K. oxytoca, P. aeruginosa, S. epidermidis, and S. aureus; assay: Planktonic growth, statements on all pathogens; format: cell-based; conditions: 18 h; for effect on planktonic growth (in words), high concentration: 112.5 µg/mL, all strains
Procedure: as §2

biofilm cells = conditions: cited from earlier work
Procedure: (§3) The biofilm prevention was assayed parallel to the well-described 12 amino acids’ cationic AMP (VRLIVAVRIWRR), named IDR-1018 [19, 47, 48]. This innate defense component is derived from the natural bovine peptide Bactenecin and was reported to show antibiofilm activity against P. aeruginosa, E. coli, Acinetobacter baumannii, K. pneumoniae, Methicillin-resistant S. aureus, Salmonella Typhimurium, and Burkholderia cenocepacia. The inhibitory activity of IDR-1018 is based on the induced dispersal of cells from biofilms at very low peptide concentrations (0.8 µg/mL). The underlying ...

planktonic cells = conditions: weak direct antimicrobial activity on planktonic cells; cited from earlier work
Procedure: as §3

Sequence | effect on K. oxytoca biofilm formation (in words) (K. oxytoca [1]) | effect on P. aeruginosa biofilm formation (in words) (P. aeruginosa PAO1) | effect on S. aureus biofilm formation (in words) (S. aureus [2]) | effect on S. epidermidis biofilm formation (in words) (S. epidermidis RP62A) | turbidity (600 nm), K. oxytoca (K. oxytoca [3]) | turbidity (600 nm), P. aeruginosa (P. aeruginosa) | reduction of planktonic growth of P. aeruginosa (P. aeruginosa) | turbidity (600 nm), S. aureus (S. aureus [4]) | reduction of planktonic growth of S. aureus (S. aureus [4]) | turbidity (600 nm), S. epidermidis (S. epidermidis) | reduction of K. oxytoca biofilm formation over concentration range (K. oxytoca [1]) | reduction of S. epidermidis biofilm formation over concentration range (S. epidermidis RP62A) | biofilm thickness (K. oxytoca M5aI) [µm] | biofilm volume (K. oxytoca M5aI) [µm^3] | effect on planktonic growth (in words), high concentration [6] | reduction of K. oxytoca biofilm formation at 112.5 µg/mL (K. oxytoca [1]; versus biofilm control (100%)) [%] | other results
GRTTLYKKVGFFFFF [BiP_Ml_3, synthetic peptide from sORF of M. leidyi EST clone 010_9A] | no significant effect | no significant effect; also recorded: slight interference | no significant effect; also recorded: could not interfere with biofilm formation | growth increase at low peptide doses | 1.255 | 1.255 | 1.5–5% | 1.345 | 1.5–5% | 1.367 |  |  |  |  |  |  | reduction of S. epidermidis biofilm formation at 112.5 µg/mL (S. epidermidis RP62A; synthetic peptide at highest concentration 112.5 µg/mL, versus biofilm control (100%)): 38%
QLFCTKLSPT [BiP_Aa_2, synthetic peptide from sORF of A. aurita EST clone 112_6C] | no significant change in biofilm formation until 14.1 µg/mL | negligible impact | negligible impact; also recorded: could not interfere with biofilm formation | appeared to reverse with increasing concentrations | 1.204 | 1.2593 | 1.5–5% | 1.304 | 1.5–5% | 1.368 | up to 43% | 45% | 8 ± 3 | 34 ± 12 |  |  | aggregation with increasing peptide concentration [5]: dimerization
THSTMNFELHQRSIQSCSPKLL [BiP_Aa_4, synthetic peptide from sORF of A. aurita EST clone 127_8E] | limited effect | limited effect | limited effect; also recorded: could not interfere with biofilm formation |  | 1.219 | 1.281 |  | 1.347 |  | 1.386 |  | 23–47% |  |  | did not significantly inhibit planktonic growth |  | 
TNFTRKFPVINSSPHQWYLKD [BiP_Aa_6, synthetic peptide from sORF of A. aurita EST clone 127_8H] |  | initially increased and then gradually decreased, approaching control levels |  |  | 1.2508 | 1.284 |  | 1.38 |  | 1.393 |  | 43% | ≤ 8 ± 1 | 64 ± 36 | did not significantly inhibit planktonic growth | 26 | reduction of S. aureus biofilm formation over concentration range (S. aureus [2]; maximum or overall reduction): 6–23%
VRLIVAVRIWRR [IDR-1018, 12 amino acids' cationic AMP, biofilm-preventing control peptide derived from bovine Bactenecin, reference compound] |  | no interference; also recorded: almost unaffected |  | only affected to a minor extent | 1.187 | 1.23 |  | 1.036 |  | 1.203 | 50% |  | 6 ± 2 | 32 ± 16 | significantly reduced the planktonic growth of all strains | 70 | reduction of K. oxytoca biofilm formation at 3.5 µg/mL (K. oxytoca [1]; synthetic peptide 3.5 µg/mL, versus biofilm control (100%), on average): 30%; effect on planktonic growth (in words), low concentration ([6]; 3.5 µg/mL, all pathogens): no effect was revealed; peptide concentration causing cell death of the biofilm cells (biofilm cells; higher concentrations): 10 µg/mL; peptide concentration inducing dispersal of cells from biofilms (biofilm cells; very low peptide concentrations): 0.8 µg/mL; MIC (planktonic cells): 19 µg/mL
